{"source": "paper PMC7502707", "about": "“Characterization and validation of a preventative therapy for hypertrophic cardiomyopathy in a murine model of the disease” (Proceedings of the National Academy of Sciences of the …, 2020)", "test_system": "wt and cTnI-G203S cardiac myocytes", "assay": "Mitochondrial membrane potential (JC-1) after in vitro peptide exposure", "assay_type": "cell-based, mouse", "settings": "10 μM BayK(−), calcium-free HBS", "method": "Fluorescence was measured on a Hamamatsu Orca ER digital camera attached to an inverted Nikon TE2000-U microscope. Fluorescent indicator 5,5′,6,6′-tetrachloro-1,1′,3,3′-tetraethylbenzimidazolylcarbocyanine iodide was used to measure Ψm in cardiac myocytes, as previously described (JC-1, Molecular Probes) ([61]). Autofluorescence was used to measure flavoprotein oxidation in cardiac myocytes based on previously described methods ([13], [29], [62]). Responses to drugs were reported as a percentage increase from the basal average. Detailed methods are provided in SI Appendix.\nSupporting Materials and Methods\nIsolation of ventricular myocytes\nMyocytes were isolated from wt and cTnI-G203S mice. Animals were anesthetized with pentobarbitone sodium (240 mg/kg) via intraperitoneal injection prior to excision of the heart. Cells were isolated as previously described (1-3). Mouse hearts were excised, cannulated onto a Langendorff apparatus via the aorta, and perfused with Krebs-Henseleit Buffer (KHB) containing […]\nO2/CO2 at 37°C) for 4 min at 37°C. Hearts were then perfused with KHB supplemented with 2.4 mg/ml collagenase B for 3 min, followed by a further 8 min perfusion in the presence of 40 μM calcium. Following perfusion, aorta and atria were removed then ventricles teased apart and triturated to dissociate myocytes into suspension. Myocyte suspension was spun at 500 RPM for 3 min, supernatant discarded, and myocytes resuspended in calcium free Hepes-Buffered Solution […]\nHepes and 2 glutamine (pH = 7.4 at 37°C) in the presence or absence of 3 mM EGTA (for 0 mM calcium experiments). For calcium containing experiments, calcium was titrated back to achieve a final extracellular concentration of 1.8 mM. […]\nAxopatch 200B voltage-clamp amplifier (Molecular Devices) with a Digidata 1440A interface and pClamp10.5 software (Molecular Devices). A Ag/AgCl electrode was used to ground the bath. Once the whole-cell configuration was achieved, the holding potential was set at –80 mV. […]\nFor calcium transient studies, microelectrodes contained (in mM): KCl 20, NaCl 10, MgCl2 2, CaCl2 0.03, potassium L-glutamate 120, EGTA 0.1, HEPES 5 and MgATP 5 (pH adjusted to 7.2 at 37°C with NaOH) supplemented with 2 µM Fura-2 AM (Fura-2, Molecular Probes, Eugene, Oregon). […]\nNaCl 140, KCl 5.4, CaCl2 1, MgCl2 0.5, HEPES 5.5 and glucose 11 (pH adjusted to 7.6 with NaOH), […]\nFluorescence was measured on a Hamamatsu Orca ER digital camera attached to an inverted Nikon TE2000-U microscope. […]\nAdditionally, individual 580 nm and 535 nm wavelength signals were assessed in each experiment to determine whether the fluorescent indicator was accurately measuring Ψm. […] Ratiometric JC-1 or flavoprotein fluorescent signals were quantified by manually tracing myocytes and subtracting an equivalent background region […]", "data": [{"sequence": "QQLEEDLKGYLDWITQAE [AID-TAT]", "values": [{"measurement": "increase in Ψm (JC-1) in response to BayK(−)", "setting": "cTnI-G203S myocytes, 1 μM peptide in vitro", "value": "attenuated the response"}, {"measurement": "increase in Ψm (JC-1) in response to BayK(−)", "setting": "cTnI-G203S myocytes, 10 μM peptide in vitro", "value": "significantly attenuated the response"}, {"measurement": "increase in Ψm (JC-1) in response to BayK(−)", "setting": "wt myocytes, 1 μM peptide in vitro", "value": "attenuated the response in cTnI-G203S but not wt myocytes"}, {"measurement": "increase in Ψm (JC-1) in response to BayK(−)", "setting": "wt myocytes, 10 μM peptide in vitro", "value": "significantly attenuated the response"}]}]}
